Experimental data published in patent US20220380763A1, “NUCLEIC ACID DELIVERY ENHANCER” (NATIONAL UNIVERSITY CORPORATION KOCHI UNIVERSITY, priority 2019, published 2022).

Experiments:
S2-013 cells = assay: Matrigel invasion assay; format: cell-based, human; settings: unmodified siRNA added with folic acid-cationic oligopeptide complex (Fol-Dab8A and Fol-Dab8B); versus control siRNA, P<0.05
Method: Each of the scrambled control siRNA, SNORA18 siRNA, NUP85 siRNA, WASF2 siRNA, and SNORA22 siRNA (all used in Example 5) with the folic acid-cationic oligopeptide complex added was added to the culture solution of S2-013 cells, and Matrigel invasion assay was performed after 48 hours.
4.0×10^4 cells were suspended in a serum-free medium and seeded in the upper chamber of a Matrigel Invasion Chamber (24-well plate, pore size: 8 μm, manufactured by Becton, Dickinson, and Company). A solvent containing 5% fetal bovine serum was added to the lower chamber. After the cells were incubated in the upper chamber for 20 hours, three independent areas were observed under a microscope, and the cells invading the lower chamber were counted. The same experiment was repeated three times, and the cell invasion ability of 52-013 cells into which each siRNA was taken up was compared.
The “*” denotes a significant difference at P<0.05 as compared to the control in the t-test.
Each of the scrambled control siRNA (SEQ ID NOs: 3 and 4), SNORA18 siRNA (SEQ ID NOs: 21 and 22), NUP85 siRNA (SEQ ID NOs: 23 and 24), WASF2 siRNA (SEQ ID NOs: 25 and 26), and SNORA22 siRNA (SEQ ID NOs: 27 and 28) was added with 2 equivalents of Dab8, Fol-Dab8A, or Fol-Dab8B to the culture solution of pancreatic cancer cell line S2-013 in culture. As a control, each of the control siRNA, SNORA18 siRNA, NUP85 siRNA, WASF2 siRNA, and SNORA22 siRNA was added alone to the culture solution of the S2-013 cells.
After 48 hours of culture, the Matrigel invasion assay was performed. In the Matrigel invasion assay, the number of cells that have migrated from the upper chamber to the lower chamber is shown. The “*” denotes a significant difference at P<0.05 as compared to the control in the t-test.

[1] = test system: S2-013 pancreatic cancer cells; assay: Lysosome (LysoTracker) and siRNA staining, confocal microscopy; format: cell-based, human; settings: chemically-modified Alexa488-labeled siRNA with Fol-Dab8A or Fol-Dab8B, 2 equivalents, overnight

Substance | cell invasion (S2-013 cells) | intracellular localization of siRNA [1]
NUP85 siRNA: double-stranded siRNA against NUP85, SEQ ID NOs: 7 and 8 (Table 2) (chain 1 CAGCGGCAGAUGACUGAACAA; chain 2 UUGUUCAGUCAUCUGCCGCUG; listed as RNA, chemistry not given here) | significantly suppressed | 
SNORA18 siRNA: double-stranded siRNA against SNORA18, SEQ ID NOs: 5 and 6 (Table 2) (chain 1 UUUACUUUACUCACAGGACUA; chain 2 UAGUCCUGUGAGUAAAGUAAA; listed as RNA, chemistry not given here) | significantly suppressed | 
SNORA22 siRNA: double-stranded siRNA against SNORA22, SEQ ID NOs: 11 and 12 (Table 2) (chain 1 CUUGGCUUUGACCCUGUGCUA; chain 2 UAGCACAGGGUCAAAGCCAAG; chemistry not given here) | significantly suppressed | localized in lysosomes
WASF2 siRNA: double-stranded siRNA against WASF2, SEQ ID NOs: 9 and 10 (Table 2) (chain 1 UAGGAUUAGAUCAUUAGCUCA; chain 2 UGAGCUAAUGAUCUAAUCCUA; listed as RNA, chemistry not given here) | significantly suppressed | 
